Earlier results, collected in patent US20040132055A1, “Recombinant chalcomycin polyketide synthase and modifying genes” (priority 2002, published 2004).

Conditions: spectrum, in words

## COC1CC(C)OC(OC2C(C)/C=C/C(=O)OC(C)C(COC3OC(C)C(O)C(OC)C3OC)C3OC3/C=C/C(=O)C(C)(O)CC2C)C1O (stereo not shown) [Chalcomycin, chalcomycin]
  antimicrobial activity: broad spectrum of antimicrobial activity
